Measured values taken from US20100021954A1, “High capacity nanoparticulate immobilization surface” (priority 2008, published 2010).

Target: T1, streptavidin (Streptomyces avidinii, UniProt P22629)
T1 construct: purchased Sigma-Aldrich S4762
Experiment: fl-biotin binding on SA previously immobilized on a PGL coated Epic plate
Details: SA immobilized at 1.5 micrograms/mL with KH2PO4 on PGL Epic plate (PGL formulation of Example 4A)
Description: Materials: Fluorescein-Biotin from Sigma-Aldrich ref. B943 1; 0.01 M PBS (phosphate buffer); 0.0027 M potassium chloride; and 0.137 M sodium chloride pH 7.4; and dimethylsulfoxide (DMSO).
Preparation of 800 nM fl-biotin solution: 16 microliters of 500 μM fl-biotin solution in DMSO were added to 10 mL of PBS and mixed.
Preparation of PBS/DMSO solution: 16 microliters of DMSO were added to […] of PBS.
Each well of the Epic® plate from Examples 7A, 7B, 9, and 10 was rinsed three (3) times with water using an automatic pipettor. Then 75 microliters of the PBS/DMSO solution were added to each well and the alignment of the optical parts was performed. The plate was left undisturbed until reaching a stable baseline. After reaching a stable base line, 75 microliters of the fl-biotin solution were added to each well and mixed continuously for 2 mins using an automatic pipettor. In the course of the mixing, the binding curve was recorded in real time.
Materials: Unlabeled Streptavidine; KH2PO4 from Sigma-Aldrich ref. P5504; and PBS buffer. First, a […] KH2PO4 solution was prepared and its pH was adjusted to 8. Then 75 microliters of this solution were added to each well from a PGL Epic® coated plate prepared using PGL formulation of Example 4A. The alignment of the optical parts was performed and the plate was left undisturbed until a stable baseline was reached. […]

T1 sequence (P22629 25-183): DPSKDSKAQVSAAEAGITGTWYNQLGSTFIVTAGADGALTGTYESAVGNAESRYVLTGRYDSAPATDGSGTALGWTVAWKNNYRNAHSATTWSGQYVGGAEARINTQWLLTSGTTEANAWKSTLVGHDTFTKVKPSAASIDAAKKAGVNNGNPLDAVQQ

Compound: O=C(CCCCCNC(=O)CCCC[C@@H]1SC[C@@H]2NC(=O)N[C@@H]21)NCCCCCNC(=S)Nc1ccc2c(c1)C(=O)OC21c2ccc(O)cc2Oc2cc(O)ccc21 [fl-biotin, Fluorescein-Biotin]
- binding of fl-biotin on immobilized SA: easily observed
